Columns and labels:
[1] = tested on: PPAR; test: PPAR transactivation assay (Cignal reporter, luciferase) induced by A2E; format: cell-based, pig; conditions: compound 20 μM; A2E 20 μM; RPE cells
Procedure: Transactivation assays were performed as previously described. Briefly, RPE cells were plated in DMEM 2% FCS at a density of 6 × 10^4 cells/cm^2. The next day transfections using the Cignal Reporter Assay Kits for PPAR, RXR, AP-1, and NF-κB were performed with Lipofectamine and Plus Reagent in serum-free medium. Three hours after the transfection, A2E and/or BIO203, both at 20 μM, were added to the culture medium for 24 h. Luciferase activity was measured using the Dual-Luciferase Reporter Assay System and with a luminometer (Infinite M1000 from Tecan, Mannedorf, Switzerland). At least 3 independent transfections were performed in triplicate for each condition.

[2] = BIO203 in plasma and eyes of mice after 6 months of BIO203-containing pellets; format: in vivo
Procedure: A custom rodent diet was formulated and irradiated (25 kGy) by Envigo RMS SARL (Gannat, France). Low dose (LD)-BIO203 (50 μg/g) and high dose (HD)-BIO203 (500 μg/g) were incorporated into Teklad Custom Research Diet 2016© pellets. The pellets were stored at −20 °C until use and were administered ad libitum as the standard Teklad Global Rodent Diet 2016© used for the control group. The concentration of BIO203 in the customized pellets at the end of each batch was determined by HPLC MS/MS. The mean concentration was 46 μg/g ± 3.5 μg/g of pellet for the LD and 464 μg/g ± 24.3 μg/g of pellet for the HD. We calculated that in the LD group, male mice weighing 31.63 g after 2 months of complementation consumed 4.16 g of pellets, and in the HD group, male mice weighing 34.11 g after 2 months of complementation consumed 4.11 g of pellets every day, which correspond to a daily dose of 6.04 ± 0.46 mg/kg for the LD-BIO203 pellets and 55.91 ± 2.93 mg/kg for the HD-BIO203 pellets.
To test the preventive/curative action of oral administration of BIO203 against retinal neurodegeneration, a total of 27 Pigmented Abca4^−/− Rdh8^−/− mice carrying the Rpe65-Leu450 mutation and the rd8 mutation in the Crb1 gene from Case Western Reserve University of eleven to twelve months of age were used. Three groups of 9 males received control chow (Teklad Custom Research Diet 2016© pellets) or chow containing LD-BIO203 or HD-BIO203 orally for 6 months. After 6 months of complementation, ERG was measured in both eyes. In the control group, two mice died during the period of complementation and one mouse during ERG measurement. In the HD-BIO203 group, one mouse died before the end of complementation, and 3 mice died just after anesthesia. […] In each group, half of the eyes were removed for A2E and BIO203 measurements, and half of the eyes were used for histological analyses and photoreceptor layer quantification.
Analysis was performed on an LC 1260 System coupled with Mass Spectrometer QQQ-6420 with DAD (Agilent Technologies). […] BIO203 and its isomers were monitored by a mass spectrometer, in positive MRM mode, with the following transitions, respectively, 381.1 -> 144.9 and 478.1 -> 362.9. For quantification of BIO201 and BIO203, calibration curves were prepared under the same conditions as the sample matrix, with various amounts of BIO201 or BIO203 (25 to 10,000 ng/mL in plasma and 5 to 500 ng/mL for eyes).
For determination of norbixin or BIO203 concentrations in plasma, aliquots of plasma samples (25 μL) and internal standard (retinoic acid at 10 µg/mL) were distributed in a 96-well microtiter plate and precipitated with methanol (100 μL). […] Under these conditions, with 5 μL injections, the limit of quantification (LOQ) was 25 ng/mL (0.33 pmol for BIO201 and 0.26 pmol for BIO203). […]

[3] = tested on: IL-6; set-up: method as in PMID 34544906; conditions: norbixin at 20 mM (so in the source); cited from earlier work
[4] = tested on: IL-8; set-up: method as in PMID 34544906; conditions: norbixin at 20 mM (so in the source); cited from earlier work
[5] = tested on: albino rats exposed to blue-light-induced photoreceptor degeneration; set-up: method as in PMID 27992460; conditions: IP; cited from earlier work

| SMILES | inhibition of PPAR transactivation induced by A2E [1] | BIO203 in the eyes ([2]; HD pellets (500 μg/g)) | BIO203 in the plasma ([2]; HD pellets (500 μg/g)) | BIO203 in the eyes ([2]; LD pellets (50 μg/g)) | BIO203 in the plasma ([2]; LD pellets (50 μg/g)) | effect on IL-6 mRNA expression [3] | effect on IL-8 mRNA expression [4] | lowest dose giving the maximal retinal neuroprotection and optimal preservation of visual functions [5] [mg/kg] |
| --- | --- | --- | --- | --- | --- | --- | --- | --- |
| COC1CCCN(C(=O)/C=C/C(C)=C/C=C/C(C)=C/C=C/C=C(C)/C=C/C=C(C)\C=C\C(=O)O)C1 (centres unmarked) [BIO203] | entirely inhibits | not detected | detected | not detected | absence of BIO203 plasmatic exposure | – | – | – |
| CC(=C/C=C/C(C)=C/C=C/C=C(C)/C=C/C=C(C)/C=C/C(=O)O)/C=C/C(=O)O [norbixin, 9′-cis-norbixin] | – | – | – | – | – | significantly reduced | significantly reduced | 50 |

Reference: article PMC10049354, “Anti-Inflammatory Effects and Photo- and Neuro-Protective Properties of BIO203, a New Amide Conjugate of Norbixin, in Development for the Treatment of Age-Related Macular Degeneration (AMD)” (International Journal of Molecular Sciences, 2023)
